From patent US20120107903A1 (priority 2010, published 2012)

Experiments:
[1] = biological target: Ralstonia pickettii 12D FAD dependent oxidoreductase (SEQ ID NO:9), variant QYY, S327Q/S366Y/A473Y (Ralstonia pickettii, UniProt A0ABM9ITV6, A473Y/S327Q/S366Y); format: biochemical
[2] = biological target: Burkholderia cepacia KS1 glucose dehydrogenase (α-subunit SEQ ID NO:3), variant QYY, 326Gln+365Tyr+472Tyr (Burkholderia cepacia, UniProt Q8GQE7, A472Y/S326Q/S365Y); format: biochemical; details: pH 7
[3] = biological target: Burkholderia thailandensis TXDOH hypothetical protein BthaT_07876 (SEQ ID NO:8), variant QYY, S324Q/S363Y/A470Y (Burkholderia thailandensis, UniProt Q2T5D8, A470Y/S324Q/S363Y)
[4] = biological target: Burkholderia cepacia KS1 glucose dehydrogenase (α-subunit SEQ ID NO:3), variant QYA (QY), 326Gln+365Tyr (Burkholderia cepacia, UniProt Q8GQE7, S326Q/S365Y); format: biochemical; details: pH 7
[5] = biological target: Burkholderia cepacia KS1 glucose dehydrogenase (α-subunit SEQ ID NO:3), variant QYR, 326Gln+365Tyr+472Arg (Burkholderia cepacia, UniProt Q8GQE7, A472R/S326Q/S365Y); format: biochemical; details: pH 7
[6] = biological target: Ralstonia solanacearum IPO1609 transmembrane dehydrogenase, wild type, SEQ ID NO:10 (Ralstonia solanacearum, UniProt A0ABF7REW7)
[7] = biological target: Ralstonia pickettii 12D FAD dependent oxidoreductase, wild type, SEQ ID NO:9 (Ralstonia pickettii, UniProt A0ABM9ITV6)
[8] = biological target: Burkholderia cenocepacia J2315 putative oxidoreductase (SEQ ID NO:7), variant QYY, S326Q/S365Y/A472Y (Burkholderia cenocepacia, UniProt B4ELB3, A472Y/S326Q/S365Y); format: biochemical; details: read-out: Km (Mal)
[9] = system: OC[C@H]1OC(O)[C@H](O)[C@@H](O)[C@@H]1O; test: cells, lysate or membranes named
[10] = system: OC[C@H]1O[C@H](O[C@H]2[C@H](O)[C@@H](O)C(O)O[C@@H]2CO)[C@H](O)[C@@H](O)[C@@H]1O; test: cells, lysate or membranes named; details: pH 7.0

Q: `OC[C@H]1OC(O)[C@H](O)[C@@H](O)[C@@H]1O` (some centres unmarked) [Glucose, glucose] was tested. Which “Vmax (Glc)” value [1] did it give?
A: 1.62 U/mL

Q: What about the “Vmax (Glc.)” value [2] of the same molecule?
A: Vmax (Glc.) = 131.6 U/mg protein

Q: And the “Vmax (Glc)” value [3]?
A: 48.8 U/mL

Q: And the “Vmax (Glc.)” value [4]?
A: Vmax (Glc.) = 149.3 U/mg protein

Q: What about the “Vmax (Glc.)” value [5] of the same molecule?
A: Vmax (Glc.) = 93.5 U/mg protein

Q: And the “Vmax (Glc)” value [6]?
A: 0.14 U/mL

Q: How did the “Vmax (Mal)” value [7] turn out when `OC[C@H]1O[C@H](O[C@H]2[C@H](O)[C@@H](O)C(O)O[C@@H]2CO)[C@H](O)[C@@H](O)[C@@H]1O` (some centres unmarked) [Mal, maltose] was run?
A: 0.94 U/mL

Q: And the Km [8]?
A: > 100000 µM

Q: And the “Vmax (Mal)” value [6]?
A: 0.14 U/mL

Q: Which results are given for (Burkholderia cenocepacia J2315)?
A: Km ([9]; pH 7.0): 110 µM; Vmax ([9]; pH 7.0): 2.05 U/mL; Km [10]: 1300 µM; Vmax [10]: 1.87 U/mL

Q: (Burkholderia cepacia) was tested. Which Km ([9]; pH 7.5) did it give?
A: 1350 µM

Q: What about the Vmax ([9]; pH 7.5) of the same molecule?
A: 100 µmol/min/mg

Q: (Ralstonia pickettii) was tested. Which Km [10] did it give?
A: 2020 µM

Q: How did the Km [10] turn out when (Ralstonia solanacearum IPO1609) was run?
A: 2640 µM
